In patent US7504517B2, “Kv1.5 potassium channel inhibitors” (Wyeth, priority 2006, dated 2009):
Counter-ions that a name gives are not always drawn.

Tests used:
Kv1.5 = target: T1, Kv1.5 (Homo sapiens, UniProt P22460); assay: Kv1.5 Patch Clamp EP; assay type: cell-based; conditions: 1.0 μM, single point; whole cell patch clamp, Kv1.5 stably over expressed in HEK or LTK- cells
T1 construct: expressed in transfected cells; host or cells: HEK or LTK- cells
Method: The external solution is standard Tyrodes solution. […] Inhibition was measured at the end of the 1 second pulses and expressed relative to controls. Initial Kv1.5 inhibition is estimated by single point determinations done at 1 μM.

L-type calcium channels = assay: FLIPR L-Type Calcium Channel Assay; assay type: cell-based, murine; conditions: HL-1 cells expressing endogenous L-type calcium channels; calcium influx after 20 mM KCl; read-out: L-type Ca^2+ IC50
Method: 50 μL per well test compounds are added to the plates and further incubated for 15 min. in a 5% CO2 37° C. incubator. All final solutions contain the anion exchange inhibitor, probenecid (2.5 mM). The 96-well plates are then placed in the center position of the FLIPR 1 (Fluorometric Imaging Plate Reader, Molecular Devices Corporation). Cell monolayers in each well are simultaneously illuminated at 488 nm with an Argon ion laser, and fluorescence emission is monitored using a 510-570 nm bandpass filter and a cooled CCD camera. To depolarize the plasma membrane and activate L-type calcium channels, 50 μL per well of 20 mM KCl (final concentration) are dispensed simultaneously to all 96 wells using the FLIPR's automatic 96-well pipettor. Fluorescence measurements are captured for 5 min. following KCl addition. Calcium influx, expressed as % control, is calculated for each concentration of test compound and concentration-response curves and IC50 values are generated using GraphPad Prism 4.0.

HERG = HERG (Homo sapiens, UniProt Q12809); assay: HERG Patch Clamp EP; conditions: human, HEK cells stably overexpressing HERG
Sequence of HERG (Q12809 whole entry): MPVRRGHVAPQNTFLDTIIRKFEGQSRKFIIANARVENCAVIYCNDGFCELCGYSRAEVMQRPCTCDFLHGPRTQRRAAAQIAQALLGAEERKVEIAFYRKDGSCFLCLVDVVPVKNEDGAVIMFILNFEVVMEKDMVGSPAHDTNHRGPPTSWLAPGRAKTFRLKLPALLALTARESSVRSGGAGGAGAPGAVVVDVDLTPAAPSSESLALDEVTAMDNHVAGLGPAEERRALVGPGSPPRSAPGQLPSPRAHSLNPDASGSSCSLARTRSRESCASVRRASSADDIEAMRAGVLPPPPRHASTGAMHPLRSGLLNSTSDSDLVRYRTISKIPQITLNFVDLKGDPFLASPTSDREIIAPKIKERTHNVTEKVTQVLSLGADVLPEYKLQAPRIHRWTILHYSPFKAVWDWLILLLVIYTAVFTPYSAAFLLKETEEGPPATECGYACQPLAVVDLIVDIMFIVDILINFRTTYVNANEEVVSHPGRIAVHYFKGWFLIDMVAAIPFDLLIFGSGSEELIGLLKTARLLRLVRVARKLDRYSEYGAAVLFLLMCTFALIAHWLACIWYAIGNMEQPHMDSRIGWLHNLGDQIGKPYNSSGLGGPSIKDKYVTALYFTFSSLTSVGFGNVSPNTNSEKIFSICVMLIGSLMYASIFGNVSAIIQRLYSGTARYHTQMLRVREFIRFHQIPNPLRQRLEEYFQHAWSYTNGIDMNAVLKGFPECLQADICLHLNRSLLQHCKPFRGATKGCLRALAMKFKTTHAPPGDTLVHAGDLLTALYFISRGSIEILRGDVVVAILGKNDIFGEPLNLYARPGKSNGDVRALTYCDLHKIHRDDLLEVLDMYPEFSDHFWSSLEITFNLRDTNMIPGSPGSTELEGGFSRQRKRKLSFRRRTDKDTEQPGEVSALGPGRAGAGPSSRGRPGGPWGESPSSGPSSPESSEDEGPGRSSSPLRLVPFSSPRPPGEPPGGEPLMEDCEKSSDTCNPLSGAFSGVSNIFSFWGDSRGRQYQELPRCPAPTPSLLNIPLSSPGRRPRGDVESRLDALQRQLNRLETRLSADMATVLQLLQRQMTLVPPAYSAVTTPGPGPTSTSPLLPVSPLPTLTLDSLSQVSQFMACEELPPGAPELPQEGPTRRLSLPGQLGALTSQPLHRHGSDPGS
Method: HERG currents are recorded by the whole cell mode of patch clamp electrophysiology as described by Hamill et al.^3 HERG is stably over expressed in HEK cells. Microelectrodes are pulled from borosilicate glass (TW150) and heat polished (tip resistance, 1.5 to 3 megaohms). The external solution is standard Tyrodes solution. The internal (microelectrode) solution contained: 110 mM KCl, 5 mM K2ATP, 5 mM K4BAPTA, 1 mM MgCl2 and 10 mM HEPES, adjusted to pH 7.2 with KOH. […] Compounds are prepared as 10-20 mM DMSO stocks and diluted to appropriate test concentrations. […] Inhibition of HERG is measured at the peak of the tail currents and expressed relative to controls. Initial HERG activity is estimated by single point determinations run at 10 μM. Concentration response curves are generated for appropriate compounds utilizing at least four concentrations and an n=3. Curve fitting and IC50 estimating are done using Graphpad software (Ver. 4). • 1.

T1 sequence (P22460 whole entry): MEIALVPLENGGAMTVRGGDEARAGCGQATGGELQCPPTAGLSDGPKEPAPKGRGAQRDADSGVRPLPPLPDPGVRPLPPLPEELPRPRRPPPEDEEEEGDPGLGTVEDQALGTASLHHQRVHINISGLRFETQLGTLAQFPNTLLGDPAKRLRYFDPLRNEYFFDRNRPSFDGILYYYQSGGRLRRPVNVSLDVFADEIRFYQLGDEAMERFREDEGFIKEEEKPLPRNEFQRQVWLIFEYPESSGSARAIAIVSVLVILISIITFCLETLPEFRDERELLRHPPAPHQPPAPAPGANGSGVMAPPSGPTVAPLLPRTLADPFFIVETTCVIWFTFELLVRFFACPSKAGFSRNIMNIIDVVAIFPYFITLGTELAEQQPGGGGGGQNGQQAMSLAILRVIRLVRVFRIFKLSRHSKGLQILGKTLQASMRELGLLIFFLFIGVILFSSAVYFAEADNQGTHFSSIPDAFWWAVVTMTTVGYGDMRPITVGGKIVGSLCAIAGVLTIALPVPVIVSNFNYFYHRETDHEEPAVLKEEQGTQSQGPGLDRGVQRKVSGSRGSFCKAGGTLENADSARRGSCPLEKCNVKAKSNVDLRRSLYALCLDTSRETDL

Molecule | inhibition at 1 µM (Kv1.5) | IC50 (L-type calcium channels) | inhibition at 10 µM (HERG) | Kv1.5% inhibition @ 1.0 μM (Kv1.5)
COc1ccc(CCN2C(=O)N(NC(=O)CN(C)Cc3ccccc3)CC2c2ccc(C(C)(C)C)cc2)cc1 (centres unmarked) [Compound 81, 2-(Benzylmethylamino)-N-{4-[4-(tert-butyl)phenyl]-3-[2-(4-methoxyphenyl)-ethyl]-2-oxo-imidazolidin-1-yl}-acetamide] | 78% | 4 µM | – | –
COc1ccc(CCN2C(=O)N(NCc3ccc(-n4ccnc4)cc3)CC2c2ccc(C)c(C)c2)cc1 (centres unmarked) [Compound 98, 1-[(4-(1H-imidazol-1-yl)phenylmethyl)amino]-3-[2-(4-methoxyphenyl)ethyl]-4-(3,4-dimethylphenyl)-2-imidazolidinone] | 83% | 4.8 µM | – | –
COc1ccc(CCN2C(=O)N(NCCc3ccccc3)CC2c2ccc(C)c(C)c2)cc1 (centres unmarked) [Compound 97, 1-[(Phenylethyl)amino]-3-[2-(4-methoxyphenyl)ethyl]-4-(3,4-dimethylphenyl)-2-imidazolidinone] | 81% | 3.5 µM | – | –
CCCCC1CN(NS(C)(=O)=O)C(=O)N1CCc1ccc(OC)cc1 (centres unmarked) [Compound 128, N-{4-butyl-3-[2-(4-methoxyphenyl)ethyl]-2-oxoimidazolidin-1-yl}methanesulfonamide] | 8% | – | 19% | –
COc1ccc(CCN2C(=O)N(NS(C)(=O)=O)CC2c2ccc(Cl)cc2)cc1 (centres unmarked) [Compound 21, 1-(Methylsulfonylamino)-3-[2-(4-methoxyphenyl)ethyl]-4-(4-chlorophenyl)-2-imidazolidinone] | 72% | 26 µM | – | –
COc1ccc(CCN2C(=O)N(NC(=O)c3ccno3)CC2c2ccc(C)c(C)c2)cc1 (centres unmarked) [Compound 78, 1-(Isoxazol-5-ylcarbonylamino)-3-[2-(4-methoxyphenyl)-ethyl]-4-(3,4-dimethylphenyl)-2-imidazolidinone] | 75% | 11 µM | – | –
COC(=O)c1ccc(NN2CC(c3ccc(C)c(C)c3)N(CCc3ccc(OC)cc3)C2=O)c(N)c1 (centres unmarked) [Compound 135, methyl 3-amino-4-({4-(3,4-dimethylphenyl)-3-[2-(4-methoxyphenyl)ethyl]-2-oxoimidazolidin-1-yl}amino)benzoate] | 53% | 8 µM | – | –
COc1ccc(CCN2C(=O)N(NC(=O)c3ccco3)CC2c2ccc(C)c(C)c2)cc1 (centres unmarked) [Compound 74, 1-(2-Furanoylamino)-3-[2-(4-Methoxyphenyl)ethyl]-4-(3,4-dimethylphenyl)-2-imidazolidinone] | 85% | 25 µM | – | –
COc1ccc(CCN2C(=O)N(NS(=O)(=O)CCl)CC2c2ccc(C(C)(C)C)cc2)cc1 (centres unmarked) [Compound 39, 1-(Chloromethylsulfonylamino)-3-[2-(4-methoxyphenyl)ethyl]-4-(4-tert-butyl-phenyl)-2-imidazolidinone] | 81% | 12 µM | – | –
COc1ccc(CCN2C(=O)N(N)CC2c2ccc(C)c(C)c2)cc1 (centres unmarked) [Compound 1, 1-Amino-3-[2-(4-methoxyphenyl)ethyl]-4-(3,4-dimethylphenyl)-2-imidazolidinone] | 59% | 5.5 µM | – | –
CCCCS(=O)(=O)NN1CC(c2ccc(C3CC3)cc2)N(CCc2ccc(OC)cc2)C1=O (centres unmarked) [Compound 31, 1-(Butylsulfonylamino)-3-[(4-methoxyphenyl)ethyl]-4-(4-cyclopropylphenyl)-2-imidazolidinone] | 84% | 4 µM | – | –
tert-butyl [2-({4-(4-tert-butylphenyl)-3-[2-(4-methoxyphenyl)ethyl]-2-oxoimidazolidin-1-yl}amino)-2-oxoethyl]methylcarbamate [Compound 109] | – | 4.6 µM | – | 71%
CCCCS(=O)(=O)NN1CC(c2ccc(C(C)(C)C)cc2)N(CCc2ccc(OC)cc2)C1=O (centres unmarked) [Compound 32, 1-(Butylsulfonylamino)-3-[(4-methoxyphenyl)-ethyl]-4-[4-(tert-butyl)phenyl]-2-imidazolidinone] | 69% | 6.7 µM | – | –
COc1ccc(CCN2C(=O)N(NCc3ccc(N(C)C)cc3)CC2c2ccc(C(C)(C)C)cc2)cc1 (centres unmarked) [Compound 91, 1-[(4-(Dimethylamino)phenylmethyl)amino]-3-[2-(4-methoxyphenyl)ethyl]-4-[4-(tert-butyl)phenyl]-2-imidazolidinone] | 85% | 4 µM | – | –
COc1ccc(CCN2C(=O)N(NS(=O)(=O)CC(=O)N(C)C)CC2c2ccc(OC)cc2)cc1 (centres unmarked) [Compound 55, 1-[[2-(Dimethylamino)-2-oxoethyl]sulfonylamino]-3-[2-(4-methoxyphenyl)-ethyl]-4-(4-methoxyphenyl)-2-imidazolidinone] | 29% | 29 µM | – | –
COc1ccc(CCN2C(=O)N(NS(C)(=O)=O)CC2c2ccc(F)cc2)cc1 (centres unmarked) [Compound 137, N-{4-(4-fluorophenyl)-3-[2-(4-methoxyphenyl)ethyl]-2-oxoimidazolidin-1-yl}methanesulfonamide] | 4% | – | – | –
COc1ccc(CCN2C(=O)N(N)CC2c2ccc(OC(F)F)cc2)cc1 (centres unmarked) [Compound 5, 1-Amino-3-[2-(4-methoxyphenyl)ethyl]-4-(4-difluoromethoxyphenyl)-2-imidazolidinone 4-methylbenzenesulfonic acid salt] | 36% | – | – | –
COc1ccc(CCN2C(=O)N(N)CC2C2(c3ccccc3)CC2)cc1 (centres unmarked) [Compound 156, 1-amino-3-[2-(4-methoxyphenyl)ethyl]-4-(1-phenylcyclopropyl)imidazolidin-2-one] | 7% | – | – | –
CCOc1ccc(CCN2C(=O)N(NS(C)(=O)=O)CC2c2ccc(OC)cc2)cc1 (centres unmarked) [Compound 113, N-{3-[2-(4-ethoxyphenyl)ethyl]-4-(4-methoxyphenyl)-2-oxoimidazolidin-1-yl}methanesulfonamide] | 5% | – | – | –
COc1ccc(CCN2C(=O)N(NC(=O)C3CC3)CC2c2ccc(C)c(C)c2)cc1 (centres unmarked) [Compound 72, Cyclopropanecarboxylic acid N-{3-[2-(4-methoxyphenyl)ethyl]-4-(3,4-dimethylphenyl)-2-oxo-imidazolidin-1-yl}-amide] | 81% | 18 µM | – | –
COc1ccc(CCN2C(=O)N(NS(N)(=O)=O)CC2c2ccc(OC)cc2)cc1 (centres unmarked) [Compound 167, N-{4-(4-methoxyphenyl)-3-[2-(4-methoxyphenyl)ethyl]-2-oxoimidazolidin-1-yl}sulfamide] | 36% | – | – | –
COc1ccc(CCN2C(=O)N(NS(=O)(=O)N3CCN(C)CC3)CC2c2ccc(C)c(C)c2)cc1 (centres unmarked) [Compound 166, N-{4-(3,4-dimethylphenyl)-3-[2-(4-methoxyphenyl)ethyl]-2-oxoimidazolidin-1-yl}-4-methylpiperazine-1-sulfonamide] | 41% | – | – | –
COc1ccc(CCN2C(=O)N(NCC3CC3)CC2c2ccc(C)c(C)c2)cc1 (centres unmarked) [Compound 86, 1-(Cyclopropylmethylamino)-3-[2-(4-methoxyphenyl)ethyl]-4-(3,4-dimethylphenyl)-2-imidazolidinone] | 20% | – | – | –
COc1ccc(CCN2C(=O)N(NS(C)(=O)=O)CC2C2(c3ccc(F)cc3)CC2)cc1 (centres unmarked) [Compound 165, N-{4-[1-(4-fluorophenyl)cyclopropyl]-3-[2-(4-methoxyphenyl)ethyl]-2-oxoimidazolidin-1-yl}methanesulfonamide] | 11% | – | – | –
COc1ccc(CCN2C(=O)N(NCc3nccn3C)CC2c2ccc(C)c(C)c2)cc1 (centres unmarked) [Compound 138, 4-(3,4-dimethylphenyl)-3-[2-(4-methoxyphenyl)ethyl]-1-{[(1-methyl-1H-imidazol-2-yl)methyl]amino}imidazolidin-2-one] | 7% | – | – | –
COc1ccc(CCN2C(=O)N(N)CC2c2ccc(C)cc2)cc1 (centres unmarked) [Compound 159, 1-amino-3-[2-(4-methoxyphenyl)ethyl]-4-(4-methylphenyl)imidazolidin-2-one] | 4% | – | – | –
CNC(=O)N1CCN(N2CC(c3ccc(C(C)(C)C)cc3)N(CCc3ccc(OC)cc3)C2=O)CC1 (centres unmarked) [Compound 117, 4-{4-(4-tert-butylphenyl)-3-[2-(4-methoxyphenyl)ethyl]-2-oxoimidazolidin-1-yl}-N-methylpiperazine-1-carboxamide] | 19% | – | – | –
COc1ccc(CN2C(=O)N(NS(C)(=O)=O)CC2c2ccc(C3CC3)cc2)cc1 (centres unmarked) [Compound 19, 1-(Methylsulfonylamino)-3-[(4-methoxyphenyl)methyl]-4-(4-cyclopropylphenyl)-2-imidazolidinone] | 27% | – | – | –
COc1ccc(CCN2C(=O)N(NCc3cc[n+]([O-])cc3)CC2c2ccc(C)c(C)c2)cc1 (centres unmarked) [Compound 161, 4-(3,4-dimethylphenyl)-3-[2-(4-methoxyphenyl)ethyl]-1-{[(1-oxidopyridin-4-yl)methyl]amino}imidazolidin-2-one] | 8% | – | – | –
COc1ccc(CCN2C(=O)N(NCc3ccccc3)CC2c2ccc(C(C)(C)C)cc2)cc1 (centres unmarked) [Compound 87, 1-Benzylamino-3-[2-(4-methoxyphenyl)ethyl]-4-[4-(tert-butyl)phenyl]-2-imidazolidinone] | 57% | 6 µM | – | –
